Results published in ChEMBL document CHEMBL4433258, “Structure-activity relationships study of neolamellarin A and its analogues as hypoxia inducible factor-1 (HIF-1) inhibitors” (Bioorg Med Chem Lett, 2019).

Tests used:
[1] = Inhibition of HIF-1 in human HeLa cells transfected with CMV driven renilla luciferase reporter gene incubated for 1 hr under normoxic condition and 12 hrs under hypoxia condition by HRE-based dual luciferase reporter gene assay; assay type: cell-based
[2] = Cytotoxicity against human HeLa cells assessed as growth inhibition incubated for 60 hrs under normoxic condition by MTT assay; assay type: cell-based

SMILES | IC50 [1] [µM] | GI50 at 60 h [2] [µM]
COc1ccc(-c2cn(C(=O)c3ccccc3)cc2-c2ccc(OC)cc2)cc1 | 14.6 | > 100
COc1ccc(CCC(=O)n2cc(-c3ccc(OC)cc3)c(-c3ccc(OC)cc3)c2)cc1 | 26.8 | > 100
O=C(c1ccccc1)n1cc(-c2ccc(O)cc2)c(-c2ccc(O)cc2)c1 | 16.8 | 32.9
O=C(c1ccccc1)n1cc(-c2ccccc2)c(-c2ccccc2)c1 | 16 | 67.1
COc1ccc(C(=O)n2cc(-c3ccc(OC)cc3)c(-c3ccc(OC)cc3)c2)cc1 | 24.4 | > 100
COc1ccc(-c2cn(C(=O)C(OC)c3ccc(OC)cc3)cc2-c2ccc(OC)cc2)cc1 (stereo unspecified) | > 50 | > 100
O=C(CCc1ccc(O)cc1)n1cc(-c2ccc(O)cc2)c(-c2ccc(O)cc2)c1 | 14.7 | 51.5
COc1ccc(/C=C/C(=O)n2cc(-c3ccc(OC)cc3)c(-c3ccc(OC)cc3)c2)cc1 | > 100 | > 100
COc1ccc(CC(=O)n2cc(-c3ccc(OC)cc3)c(-c3ccc(OC)cc3)c2)cc1 | 22.5 | > 100
O=C(c1ccc(O)cc1)n1cc(-c2ccc(O)cc2)c(-c2ccc(O)cc2)c1 | 18.8 | 76
COc1ccc(-c2cn(C(=O)C(O)c3ccc(OC)cc3)cc2-c2ccc(OC)cc2)cc1 (stereo unspecified) | 11.9 | 44.2
O=C(/C=C/c1ccc(O)cc1)n1cc(-c2ccc(O)cc2)c(-c2ccc(O)cc2)c1 | 16.6 | 27.3
O=C(Cc1ccc(O)cc1)n1cc(-c2ccc(O)cc2)c(-c2ccc(O)cc2)c1 [NEOLAMELLARIN A] | 10.8 | 59.5
